Assay results published in US20050032873A1, “3-Amino chroman and 2-amino tetralin derivatives” (Wyeth, priority 2003, published 2005).
Read-outs that look alike come from different tables or passages of the source.

Legend:
serotonin transporter = biological target: T1, serotonin transporter (Rattus norvegicus, UniProt P31652); experiment: 5-HT transporter affinity: displacement of 3H-paroxetine from male rat cortical membranes; assay type: binding; conditions: displacement of 3H-paroxetine, male rat cortical membranes
T1 construct: displace ^3H-paroxetine from male rat cortical membranes; from tissue; host or cells: male rat cortical membranes
T1 sequence (P31652 whole entry): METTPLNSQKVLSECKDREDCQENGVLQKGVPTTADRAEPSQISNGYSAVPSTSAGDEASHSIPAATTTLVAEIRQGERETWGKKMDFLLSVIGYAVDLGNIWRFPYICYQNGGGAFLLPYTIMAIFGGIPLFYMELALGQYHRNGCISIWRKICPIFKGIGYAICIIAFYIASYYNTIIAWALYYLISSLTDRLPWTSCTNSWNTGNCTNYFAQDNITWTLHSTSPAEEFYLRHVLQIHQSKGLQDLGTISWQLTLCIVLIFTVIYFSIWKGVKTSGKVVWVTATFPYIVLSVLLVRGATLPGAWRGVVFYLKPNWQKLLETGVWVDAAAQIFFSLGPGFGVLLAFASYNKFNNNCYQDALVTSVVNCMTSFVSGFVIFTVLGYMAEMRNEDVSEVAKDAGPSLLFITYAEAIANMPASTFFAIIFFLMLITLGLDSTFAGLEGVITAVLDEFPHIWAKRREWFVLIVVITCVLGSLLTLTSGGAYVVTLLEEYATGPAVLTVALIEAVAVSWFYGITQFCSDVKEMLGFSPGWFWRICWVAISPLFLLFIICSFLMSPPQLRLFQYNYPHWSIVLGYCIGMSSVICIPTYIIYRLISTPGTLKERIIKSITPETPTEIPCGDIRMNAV

5-HT1A receptor [1] = biological target: T2, 5-HT1A receptor (Homo sapiens, UniProt P08908); experiment: 5-HT1A receptor affinity: displacement of [3H] 8-OH-DPAT; assay type: binding; design: expressed in transfected cells; conditions: displacement of [3H] 8-OH-DPAT, CHO cells stably transfected with human 5-HT1A receptors
T2 sequence (P08908 1-422): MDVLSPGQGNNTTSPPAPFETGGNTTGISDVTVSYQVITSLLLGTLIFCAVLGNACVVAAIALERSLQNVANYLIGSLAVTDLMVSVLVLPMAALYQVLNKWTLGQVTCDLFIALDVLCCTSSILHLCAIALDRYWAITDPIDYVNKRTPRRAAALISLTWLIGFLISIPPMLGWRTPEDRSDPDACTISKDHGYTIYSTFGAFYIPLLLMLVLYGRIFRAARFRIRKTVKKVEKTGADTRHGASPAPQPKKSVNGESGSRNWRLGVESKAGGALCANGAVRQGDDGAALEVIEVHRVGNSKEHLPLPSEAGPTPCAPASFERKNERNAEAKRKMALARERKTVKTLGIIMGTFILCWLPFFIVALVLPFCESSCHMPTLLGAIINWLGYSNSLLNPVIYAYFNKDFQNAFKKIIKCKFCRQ

5-HT1A receptor [2] = biological target: T2, 5-HT1A receptor; experiment: cAMP accumulation assay, 5-HT1A function; assay type: cell-based; conditions: for IC50: cells marked IC50 (antagonist); for EC50: cells marked EC50 (agonist)
[3] = biological target: T3, cloned human 5-HT1A receptors (Homo sapiens, UniProt P08908); experiment: 35S-GTPγS binding assay, 5-HT1A function; assay type: biochemical; conditions: for IC50: antagonist potency, reversal of 8-OH-DPAT; for EC50: agonist potency
T3 construct: expressed in transfected cells
T3 sequence (P08908 1-422): T2 sequence (P08908 1-422)

[4] = read-out: 5-HT Transporter Affinity Ki
[5] = read-out: 5-HT1A Receptor Affinity Ki
[6] = read-out: 5-HT1A Function cAMP IC50
[7] = in brackets after EC50 or IC50, read-out: 5-HT1A Function cAMP (Emax)
[8] = read-out: 5-HT1A Function GTPγS IC50
[9] = maximum inhibitory effect, in brackets after IC50, read-out: 5-HT1A Function GTPγS (Imax)
[10] = maximum stimulatory effect, in brackets after EC50, read-out: 5-HT1A Function GTPγS (Emax)

Row | SMILES | Ki (serotonin transporter; [4]) [nM] | Ki (5-HT1A receptor [1]; [5]) [nM] | IC50 (5-HT1A receptor [2]; [6]) [nM] | Emax (5-HT1A receptor [2]; [7]) [%] | IC50 [3, 8] [nM] | Emax [3, 9] [%] | 5-HT1A Function cAMP (Emax) (5-HT1A receptor [2]; in brackets after EC50 or IC50) [%] | 5-HT1A Function GTPγS (Imax) ([3]; maximum inhibitory effect, in brackets after IC50) [%] | EC50 (5-HT1A receptor [2]) [nM] | EC50 [3] [nM] | Emax [3, 10] [%] | Emax (5-HT1A receptor [2]; read-out: 5-HT1A Function cAMP (Emax), in brackets after EC50 or IC50) [%] | Ki (serotonin transporter; 5-HT Transporter Affinity Ki (nM)) [nM] | Ki (5-HT1A receptor [1]; 5-HT1A Receptor Affinity Ki (nM)) [nM] | IC50 (5-HT1A receptor [2]; 5-HT1A Function cAMP IC50 (nM)) [nM] | IC50 ([3]; 5-HT1A Function GTPγS IC50 (nM)) [nM]
1 | NC(=O)c1ccc(F)c2c1CC(N(CCCc1c[nH]c3cc(F)ccc13)C1CCC1)CO2 (centres unmarked) [Compound 53, 3-{cyclobutyl[3-(6-fluoro-1H-indol-3-yl)propyl]amino}-8-fluorochromane-5-carboxamide] | 237 | 5.02 | 486 | 0 | 512 | 100 | – | – | – | – | – | – | – | – | – | –
2 | COC(=O)c1ccc(F)c2c1CC(N(CCCc1c[nH]c3ccc(F)cc13)C1CCC1)CO2 (centres unmarked) [Compound 55, Methyl 3-{cyclobutyl[3-(5-fluoro-1H-indol-3-yl)propyl]amino}-8-fluorochromane-5-carboxylate] | 161 | 73.8 | – | – | – | – | 0 | 62 | – | – | – | – | – | – | – | –
3 | COC(=O)c1ccc(F)c2c1CC(NCCCCc1c[nH]c3ccc(F)cc13)CO2 (centres unmarked) [Compound 57, Methyl 8-fluoro-3-{[4-(5-fluoro-1H-indol-3-yl)butyl]amino}chromane-5-carboxylate] | 4.69 | 14.1 | – | 91.5 | – | – | – | – | 87.1 | 247 | 89 | – | – | – | – | –
4 | COC(=O)c1ccc(F)c2c1C[C@H](NCCCCc1c[nH]c3ccc(F)cc13)CO2 [Compound 57a, Methyl (3S)-8-fluoro-3-{[4-(5-fluoro-1H-indol-3-yl)butyl]amino}chromane-5-carboxylate] | 4.21 | 113 | – | 81 | – | – | – | – | 337 | 1750 | 96 | – | – | – | – | –
5 | COC(=O)c1ccc(F)c2c1C[C@@H](NCCCCc1c[nH]c3ccc(F)cc13)CO2 [Compound 57b, methyl (3R)-8-fluoro-3-{[4-(5-fluoro-1H-indol-3-yl)butyl]amino}chromane-5-carboxylate] | 12.2 | 19.4 | – | 93 | – | – | – | – | 180 | 641 | 100 | – | – | – | – | –
6 | CNC(=O)c1ccc(F)c2c1CC(N(CCCc1c[nH]c3ccc(F)cc13)C1CCC1)CO2 (centres unmarked) [Compound 59, 3-{cyclobutyl[3-(5-fluoro-1H-indol-3-yl)propyl]amino}-8-fluoro-N-methylchromane-5-carboxamide] | 5.05 | 5.35 | 166 | 0 | 812 | 100 | – | – | – | – | – | – | – | – | – | –
7 | CCNC(=O)c1ccc(F)c2c1CC(N(CCCc1c[nH]c3ccc(F)cc13)C1CCC1)CO2 (centres unmarked) [Compound 60, 3-{cyclobutyl[3-(5-fluoro-1H-indol-3-yl)propyl]amino}-N-ethyl-8-fluorochromane-5-carboxamide] | 4.86 | 17.8 | 116 | 0 | 1400 | 100 | – | – | – | – | – | – | – | – | – | –
8 | CCCNC(=O)c1ccc(F)c2c1CC(N(CCCc1c[nH]c3ccc(F)cc13)C1CCC1)CO2 (centres unmarked) [Compound 61, 3-{cyclobutyl[3-(5-fluoro-1H-indol-3-yl)propyl]amino}-8-fluoro-N-propylchromane-5-carboxamide] | 2.4 | 195 | 593 | – | 800 | – | – | – | – | – | – | 0 | – | – | – | –
9 | CC(C)NC(=O)c1ccc(F)c2c1CC(N(CCCc1c[nH]c3ccc(F)cc13)C1CCC1)CO2 (centres unmarked) [Compound 63, 3-{cyclobutyl[3-(5-fluoro-1H-indol-3-yl)propyl]amino}-8-fluoro-N-isopropylchromane-5-carboxamide] | 3.56 | 46.1 | 449 | 0 | 2170 | 76 | – | – | – | – | – | – | – | – | – | –
10 | O=C(NC1CC1)c1ccc(F)c2c1CC(N(CCCc1c[nH]c3ccc(F)cc13)C1CCC1)CO2 (centres unmarked) [Compound 64, 3-{cyclobutyl[3-(5-fluoro-1H-indol-3-yl)propyl]amino}-N-cyclopropyl-8-fluorochromane-5-carboxamide] | 4.89 | 19.2 | 288 | 0 | 395 | 90 | – | – | – | – | – | – | – | – | – | –
11 | O=C(NC1CCC1)c1ccc(F)c2c1CC(N(CCCc1c[nH]c3ccc(F)cc13)C1CCC1)CO2 (centres unmarked) [Compound 65, N-cyclobutyl-3-{cyclobutyl[3-(5-fluoro-1H-indol-3-yl)propyl]amino}-8-fluorochromane-5-carboxamide] | 3.98 | 214 | 358 | 0 | 91.5 | 48 | – | – | – | – | – | – | – | – | – | –
12 | CCCCN(CCCc1c[nH]c2ccc(F)cc12)C1COc2c(F)ccc(C(N)=O)c2C1 (centres unmarked) [Compound 72, 3-{butyl[3-(5-fluoro-1H-indol-3-yl)propyl]amino}-8-fluorochromane-5-carboxamide] | 52.5 | 38.8 | – | 0 | 3250 | 43 | – | – | – | – | – | – | – | – | – | –
13 | CN(C)C(=O)c1ccc(F)c2c1CC(N(CCCc1c[nH]c3ccc(F)cc13)C1CCC1)CO2 (centres unmarked) [Compound 73, 3-{cyclobutyl[3-(5-fluoro-1H-indol-3-yl)propyl]amino}-8-fluoro-N,N-dimethylchromane-5-carboxamide] | 28.8 | 372 | 155 | 0 | 5730 | 40 | – | – | – | – | – | – | – | – | – | –
14 | CCN(CCc1c[nH]c2ccc(F)cc12)C1COc2c(F)ccc(C(N)=O)c2C1 (centres unmarked) [Compound 76, 3-{ethyl[2-(5-fluoro-1H-indol-3-yl)ethyl]amino}-8-fluorochromane-5-carboxamide] | – | – | – | 0 | – | 68 | – | – | – | – | – | – | 52 | 31.3 | 68.2 | 470
15 | CCCN(CCc1c[nH]c2ccc(F)cc12)C1COc2c(F)ccc(C(N)=O)c2C1 (centres unmarked) [Compound 77, 8-fluoro-3-[[2-(5-fluoro-1H-indol-3-yl)ethyl](propyl)amino]chromane-5-carboxamide] | 60.5 | 18 | 68.3 | 0 | 2570 | 100 | – | – | – | – | – | – | – | – | – | –
16 | NC(=O)c1ccc(F)c2c1CC(N(CCc1c[nH]c3ccc(F)cc13)CC1CC1)CO2 (centres unmarked) [Compound 78, 3-{(cyclopropylmethyl)[2-(5-fluoro-1H-indol-3-yl)ethyl]amino}-8-fluorochromane-5-carboxamide] | 83 | 6.6 | 97.1 | 0 | 384 | 100 | – | – | – | – | – | – | – | – | – | –
17 | CCN(CCCCc1c[nH]c2ccc(F)cc12)C1COc2c(F)ccc(C(N)=O)c2C1 (centres unmarked) [Compound 80, 3-{ethyl[4-(5-fluoro-1H-indol-3-yl)butyl]amino}-8-fluorochromane-5-carboxamide] | 0.15 | 312 | 1370 | 0 | 1000 | 100 | – | – | – | – | – | – | – | – | – | –
18 | CCCN(CCCCc1c[nH]c2ccc(F)cc12)C1COc2c(F)ccc(C(N)=O)c2C1 (centres unmarked) [Compound 81, 8-fluoro-3-[[4-(5-fluoro-1H-indol-3-yl)butyl](propyl)amino]chromane-5-carboxamide] | 6.15 | 4.64 | 125 | 0 | 775 | 100 | – | – | – | – | – | – | – | – | – | –
19 | NC(=O)c1ccc(F)c2c1CC(N(CCCCc1c[nH]c3ccc(F)cc13)CC1CC1)CO2 (centres unmarked) [Compound 82, 3-{(cyclopropylmethyl)[4-(5-fluoro-1H-indol-3-yl)butyl]amino}-8-fluorochromane-5-carboxamide] | 3.51 | 1.64 | 51.1 | 0 | 162 | 100 | – | – | – | – | – | – | – | – | – | –
20 | NC(=O)c1ccc(F)c2c1CC(N(CCCCc1c[nH]c3ccc(F)cc13)C1CCC1)CO2 (centres unmarked) [Compound 83, 3-{cyclobutyl[4-(5-fluoro-1H-indol-3-yl)butyl]amino}-8-fluorochromane-5-carboxamide] | 14.6 | 4.8 | 23.6 | 0 | 351 | 100 | – | – | – | – | – | – | – | – | – | –
21 | NC(=O)c1ccc(F)c2c1C[C@@H](N(CCCCc1c[nH]c3ccc(F)cc13)C1CCC1)CO2 [Compound 83a, (3R)-3-{cyclobutyl[4-(5-fluoro-1H-indol-3-yl)butyl]amino}-8-fluorochromane-5-carboxamide] | 13.2 | 3.43 | 173 | 0 | 505 | 100 | – | – | – | – | – | – | – | – | – | –
